Source: PMC7332792 (Acta Pharmaceutica Sinica. B, 2020)
Bridge positions count the residues as written; N and C are the ends. Ends that are not written are not given here.

What was measured:
human LAG-3 protein = molecular target: T1, human LAG-3 protein (human, UniProt P18627, labeled with Red-NHS647 dye (in the MST assay)); test: MST
T1 sequence: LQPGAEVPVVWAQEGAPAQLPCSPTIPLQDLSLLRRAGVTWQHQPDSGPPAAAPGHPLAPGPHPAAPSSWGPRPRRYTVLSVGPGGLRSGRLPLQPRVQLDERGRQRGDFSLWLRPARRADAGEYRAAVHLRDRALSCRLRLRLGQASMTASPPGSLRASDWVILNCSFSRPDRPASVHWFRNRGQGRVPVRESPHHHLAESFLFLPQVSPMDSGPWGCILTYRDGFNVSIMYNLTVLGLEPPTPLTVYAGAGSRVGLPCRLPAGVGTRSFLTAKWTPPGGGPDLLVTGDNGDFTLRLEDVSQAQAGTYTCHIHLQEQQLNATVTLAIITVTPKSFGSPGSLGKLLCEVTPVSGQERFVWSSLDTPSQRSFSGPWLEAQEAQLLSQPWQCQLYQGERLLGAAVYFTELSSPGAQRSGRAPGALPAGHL

Row | Molecule | immune response (immunogenicity) in mice (mice with or without CT26 xenograft) | IgG levels in the blood (naïve mice and CT26 tumor bearing mice after 14 days of C25 treatment, ELISA, versus control, n = 5) | Kd (human LAG-3 protein)
1 | CSCC[C@@H]1NC(=O)[C@@H]2CCCN2C(=O)[C@H](C(C)C)NC(=O)[C@@H](N)CSSC[C@@H](C(=O)O)NC(=O)[C@H](C)NC(=O)[C@H](CCCNC(=N)N)NC(=O)[C@H](Cc2ccc(O)cc2)NC(=O)[C@H]([C@@H](C)O)NC1=O [C25] | did not cause significant immune response in mice | not significantly different from those in the control group | 
2 | CNWMINKEC (disulfide 1-9) [cyclic peptide C19] |  |  | 5.05 µM
3 | CNMHTPMVC (disulfide 1-9) [cyclic peptide C17] |  |  | 1.83 µM
